From US9796711B2, “Substituted pyrazolo[3,4-b]pyridin-6-carboxylic acids and method of use” (AbbVie S.àr.l., priority 2015, dated 2017)

Assays:
ΔF508-CFTR [1] = molecular target: T1, ΔF508-CFTR (Homo sapiens, UniProt P13569, DEL508-508); assay: CFTR cell surface levels using HRP-tagged ΔF508-CFTR expressing CFBE cells, in the presence of a co-corrector; format: cell-based; settings: HRP-tagged ΔF508-CFTR expressing CFBE cells, in the presence of 3 μM co-corrector; for EC50: read-out: EC50
T1 construct: host or cells: CFBE41o-, doxycycline-inducible
T1 sequence (P13569 with tags, fused parts or gaps DEL508-508): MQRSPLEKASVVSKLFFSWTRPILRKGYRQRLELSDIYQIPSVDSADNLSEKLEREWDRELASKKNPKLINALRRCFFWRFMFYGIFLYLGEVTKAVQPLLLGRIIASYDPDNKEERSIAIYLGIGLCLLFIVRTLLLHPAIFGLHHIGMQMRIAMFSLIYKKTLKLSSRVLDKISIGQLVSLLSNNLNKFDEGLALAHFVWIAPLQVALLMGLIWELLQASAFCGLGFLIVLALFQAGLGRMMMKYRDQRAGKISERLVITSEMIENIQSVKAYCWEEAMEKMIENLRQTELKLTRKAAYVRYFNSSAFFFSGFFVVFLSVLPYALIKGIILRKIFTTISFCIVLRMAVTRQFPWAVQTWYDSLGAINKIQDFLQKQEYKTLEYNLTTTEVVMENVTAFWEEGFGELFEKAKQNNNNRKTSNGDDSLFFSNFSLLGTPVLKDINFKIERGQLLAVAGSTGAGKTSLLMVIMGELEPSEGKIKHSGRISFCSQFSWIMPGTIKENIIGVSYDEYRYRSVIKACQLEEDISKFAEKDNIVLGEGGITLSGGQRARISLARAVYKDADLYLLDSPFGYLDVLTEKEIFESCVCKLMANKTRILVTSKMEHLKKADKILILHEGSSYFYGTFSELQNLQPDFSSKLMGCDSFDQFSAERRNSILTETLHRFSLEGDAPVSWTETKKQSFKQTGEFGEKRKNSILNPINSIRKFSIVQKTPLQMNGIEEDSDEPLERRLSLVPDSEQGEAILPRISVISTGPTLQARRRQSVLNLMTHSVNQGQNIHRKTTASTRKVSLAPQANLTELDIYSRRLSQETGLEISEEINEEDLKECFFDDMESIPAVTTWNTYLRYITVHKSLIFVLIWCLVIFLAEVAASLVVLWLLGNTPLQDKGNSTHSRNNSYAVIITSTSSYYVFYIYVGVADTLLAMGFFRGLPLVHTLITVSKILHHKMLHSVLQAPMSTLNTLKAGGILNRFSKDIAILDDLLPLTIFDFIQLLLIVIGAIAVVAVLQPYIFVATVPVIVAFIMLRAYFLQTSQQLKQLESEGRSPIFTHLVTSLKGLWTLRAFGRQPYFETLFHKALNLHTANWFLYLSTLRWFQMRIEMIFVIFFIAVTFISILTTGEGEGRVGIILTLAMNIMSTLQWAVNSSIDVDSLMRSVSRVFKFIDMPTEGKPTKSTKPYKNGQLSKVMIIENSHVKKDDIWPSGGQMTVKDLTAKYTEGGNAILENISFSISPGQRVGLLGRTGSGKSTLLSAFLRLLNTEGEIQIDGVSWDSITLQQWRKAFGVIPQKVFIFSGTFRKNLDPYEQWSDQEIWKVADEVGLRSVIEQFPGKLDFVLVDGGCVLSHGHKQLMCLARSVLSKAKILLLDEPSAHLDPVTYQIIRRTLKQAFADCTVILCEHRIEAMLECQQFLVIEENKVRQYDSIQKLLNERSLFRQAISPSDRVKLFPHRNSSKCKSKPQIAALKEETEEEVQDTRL
In short: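 Cells were seeded with 0.5 μg/mL doxycycline and held 68 h at 37 °C. Test compounds plus 3 μM co-corrector (final 0.1% DMSO) were then added for 20 h at 33 °C. Washed cells received HRP substrate, and luminescence was normalized between DMSO and 3 μM co-corrector controls.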

ΔF508-CFTR [2] = molecular target: T1, ΔF508-CFTR; assay: CFTR cell surface levels using HRP-tagged ΔF508-CFTR expressing CFBE cells, intrinsic corrector capacity; format: cell-based; settings: HRP-tagged ΔF508-CFTR CFBE41o- cells, compounds alone (intrinsic corrector capacity), 20 hours at 33° C.; for % Activation: positive control 3 μM corrector; for EC50: read-out: EC50
In short: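 Here the cells express ΔF508-CFTR with horseradish peroxidase inserted in extracellular loop 4, so only rescued channel at the surface gives luminescent signal. Compounds act on their own, 20 h at the reduced temperature of 33 °C; values are percent activity relative to DMSO and a 3 μM corrector.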

Row | SMILES | % Activation (ΔF508-CFTR [1]) | EC50 (ΔF508-CFTR [1]) | % Activation (ΔF508-CFTR [2]) | EC50 (ΔF508-CFTR [2])
1 | Cc1nn(-c2ccccc2)c2nc(C(=O)O)cc(-c3ccc(N4CC5(COC5)C4)cc3)c12 [compound 126, 3-methyl-4-[4-(2-oxa-6-azaspiro[3.3]heptan-6-yl)phenyl]-1-phenyl-1H-pyrazolo[3,4-b]pyridine-6-carboxylic acid] | 319.25% | 0.837 µM | 156.45% | 1.69 µM
2 | Cc1nn(-c2ccccc2)c2nc(C(=O)O)cc(-c3ccc(N4C[C@@H]5C[C@H]4CO5)cc3)c12 [compound 127, 3-methyl-4-{4-[(1S,4S)-2-oxa-5-azabicyclo[2.2.1]heptan-5-yl]phenyl}-1-phenyl-1H-pyrazolo[3,4-b]pyridine-6-carboxylic acid] | 401.3% | 0.719 µM | 221.4% | 1.79 µM
3 | Cc1nn(-c2ccccc2)c2nc(C(=O)O)cc(C3=CCOCC3)c12 [compound 128, 4-(3,6-dihydro-2H-pyran-4-yl)-3-methyl-1-phenyl-1H-pyrazolo[3,4-b]pyridine-6-carboxylic acid] | 175.85% | 3.34 µM | 33.92% | 3.34 µM
4 | CC1(c2nn(-c3ccccc3)c3nc(C(=O)O)cc(-c4ccc(N5CCOCC5)cc4)c23)CC1 [compound 129, 3-(1-methylcyclopropyl)-4-[4-(morpholin-4-yl)phenyl]-1-phenyl-1H-pyrazolo[3,4-b]pyridine-6-carboxylic acid] | 380% | 0.39 µM | 178.3% | 0.414 µM
5 | CN(C)c1ccc(-c2cc(C(=O)O)nc3c2c(C(C)(C)C)nn3C2CCCCC2)cc1 [compound 131, 3-tert-butyl-1-cyclohexyl-4-[4-(dimethylamino)phenyl]-1H-pyrazolo[3,4-b]pyridine-6-carboxylic acid] | 388.7% | 0.62 µM | 153.75% | 0.899 µM
6 | CC(=O)N1CCN(c2cc(C(=O)O)nc3c2c(C)nn3-c2ccccc2)CC1 [compound 132, 4-(4-acetylpiperazin-1-yl)-3-methyl-1-phenyl-1H-pyrazolo[3,4-b]pyridine-6-carboxylic acid] | 156.4% | 3.34 µM | 13.45% | > 10 µM
7 | Cc1nn(-c2ccccc2)c2nc(C(=O)O)cc(-c3ccc(N4CCOC(CO)C4)cc3)c12 (stereo not shown) [compound 133, 4-{4-[2-(hydroxymethyl)morpholin-4-yl]phenyl}-3-methyl-1-phenyl-1H-pyrazolo[3,4-b]pyridine-6-carboxylic acid] | 280.3% | 3.34 µM | 74.96% | 3.34 µM
8 | Cc1nn(-c2ccccc2)c2nc(C(=O)O)cc(-c3ccc(N4CC5CCC(C4)O5)cc3)c12 [compound 134, 3-methyl-4-[4-(8-oxa-3-azabicyclo[3.2.1]octan-3-yl)phenyl]-1-phenyl-1H-pyrazolo[3,4-b]pyridine-6-carboxylic acid] | 362.2% | 0.556 µM | 153.25% | 0.982 µM
9 | Cc1nn(-c2ccccc2)c2nc(C(=O)O)cc(-c3ccc(N4CCC4)cc3)c12 [compound 135, 4-[4-(azetidin-1-yl)phenyl]-3-methyl-1-phenyl-1H-pyrazolo[3,4-b]pyridine-6-carboxylic acid] | 355.55% | 1.46 µM | 165.1% | 2.2 µM
10 | Cc1nn(-c2ccccc2)c2nc(C(=O)O)cc(N3CCN(CC#N)CC3)c12 [compound 136, 4[4-(cyanomethyl)piperazin-1-yl]-3-methyl-1-phenyl-1H-pyrazolo[3,4-b]pyridine-6-carboxylic acid] | 189.95% | 3.34 µM | 40.405% | 3.34 µM
11 | Cc1nn(-c2ccccc2)c2nc(C(=O)O)cc(N3CCC(O)CC3)c12 [compound 137, 4-(4-hydroxypiperidin-1-yl)-3-methyl-1-phenyl-1H-pyrazolo[3,4-b]pyridine-6-carboxylic acid] | 158.05% | 3.34 µM | 27.985% | > 10 µM
12 | CC(=O)N1CCC(c2cc(C(=O)O)nc3c2c(C)nn3-c2ccccc2)CC1 [compound 138, 4-(1-acetylpiperidin-4-yl)-3-methyl-1-phenyl-1H-pyrazolo[3,4-b]pyridine-6-carboxylic acid] | 133.3% | > 10 µM | 12.11% | > 10 µM
13 | Cc1nn(-c2ccccc2)c2nc(C(=O)O)cc(C3CCN(CC#N)CC3)c12 [compound 139, 4-[1-(cyanomethyl)piperidin-4-yl]-3-methyl-1-phenyl-1H-pyrazolo[3,4-b]pyridine-6-carboxylic acid] | 104.1% | > 10 µM | −0.041% | > 10 µM
14 | Cc1nn(-c2ccccc2)c2nc(C(=O)O)cc(-c3ccc(N(C)C4COC4)cc3)c12 [compound 140, 3-methyl-4-{4-[methyl(oxetan-3-yl)amino]phenyl}-1-phenyl-1H-pyrazolo[3,4-b]pyridine-6-carboxylic acid] | 362.05% | 0.941 µM | 178% | 1.5 µM
15 | CC(C)c1nn(C2CCN(CC#N)C2)c2nc(C(=O)O)cc(-c3ccc(N4CCOCC4)cc3)c12 (stereo not shown) [compound 141, 1-[1-(cyanomethyl)pyrrolidin-3-yl]-4-[4-(morpholin-4-yl)phenyl]-3-(propan-2-yl)-1H-pyrazolo[3,4-b]pyridine-6-carboxylic acid] | 121.5% | > 10 µM | 5.399% | > 10 µM
16 | COC(=O)N1CCC(n2nc(C(C)C)c3c(-c4ccc(N5CCOCC5)cc4)cc(C(=O)O)nc32)C1 (stereo not shown) [compound 142, 1-[1-(methoxycarbonyl)pyrrolidin-3-yl]-4-[4-(morpholin-4-yl)phenyl]-3-(propan-2-yl)-1H-pyrazolo[3,4-b]pyridine-6-carboxylic acid] | 135.2% | 5.55 µM | 17.605% | > 10 µM
17 | COC1CCN(c2cc(C(=O)O)nc3c2c(C)nn3-c2ccccc2)CC1 [compound 143, 4-(4-methoxypiperidin-1-yl)-3-methyl-1-phenyl-1H-pyrazolo[3,4-b]pyridine-6-carboxylic acid] | 246.8% | 2.42 µM | 109.45% | 2.29 µM
18 | Cc1nn(-c2ccccc2)c2nc(C(=O)O)cc(-c3ccc(NC4CCOCC4)cc3)c12 [compound 145, 3-methyl-4-{4-[(oxan-4-yl)amino]phenyl}-1-phenyl-1H-pyrazolo[3,4-b]pyridine-6-carboxylic acid] | 368.6% | 0.85 µM | 190.2% | 1.43 µM
19 | Cc1nn(-c2ccccc2)c2nc(C(=O)O)cc(N3CCN(S(C)(=O)=O)CC3)c12 [compound 146, 4-[4-(methanesulfonyl)piperazin-1-yl]-3-methyl-1-phenyl-1H-pyrazolo[3,4-b]pyridine-6-carboxylic acid] | 134.9% | > 10 µM | 8.92% | > 10 µM
20 | CN(C)c1ncc(-c2cc(C(=O)O)nc3c2c(C(C)(C)C)nn3C2CCCCC2)cn1 [compound 147, 3-tert-butyl-1-cyclohexyl-4-[2-(dimethylamino)pyrimidin-5-yl]-1H-pyrazolo[3,4-b]pyridine-6-carboxylic acid] | 318.9% | 0.831 µM | 114.65% | 1.05 µM
21 | N#CCN1CC(c2nn(-c3ccccc3)c3nc(C(=O)O)cc(-c4ccc(N5CCOCC5)cc4)c23)C1 [compound 148, 3-[1-(cyanomethyl)azetidin-3-yl]-4-[4-(morpholin-4-yl)phenyl]-1-phenyl-1H-pyrazolo[3,4-b]pyridine-6-carboxylic acid] | 238.75% | 3.34 µM | 79.64% | 3.34 µM
22 | CC(C)(C)c1nn(C2CCCCC2)c2nc(C(=O)O)cc(-c3cnc(N4CCOCC4)nc3)c12 [compound 149, 3-tert-butyl-1-cyclohexyl-4-[2-(morpholin-4-yl)pyrimidin-5-yl]-1H-pyrazolo[3,4-b]pyridine-6-carboxylic acid] | 296% | 0.449 µM | 112.95% | 0.653 µM
23 | Cc1nn(-c2ccccc2)c2nc(C(=O)O)cc(N3CCCCC3=O)c12 [compound 150, 3-methyl-4-(2-oxopiperidin-1-yl)-1-phenyl-1H-pyrazolo[3,4-b]pyridine-6-carboxylic acid] | 115.3% | > 10 µM | 6.341% | > 10 µM
24 | Cc1nn(-c2ccccc2)c2nc(C(=O)O)cc(OCC3CCCCC3)c12 [compound 152, 4-(cyclohexylmethoxy)-3-methyl-1-phenyl-1H-pyrazolo[3,4-b]pyridine-6-carboxylic acid] | 253.1% | 2.09 µM | 75.36% | 2.63 µM
25 | Cc1nn(-c2ccccc2)c2nc(C(=O)O)cc(-c3ccc(N4CCC(O)C4)cc3)c12 (stereo not shown) [compound 153, 4-[4-(3-hydroxypyrrolidin-1-yl)phenyl]-3-methyl-1-phenyl-1H-pyrazolo[3,4-b]pyridine-6-carboxylic acid] | 386.85% | 1.2 µM | 198.45% | 1.53 µM
